Data on two molecules can be found in patent US12209112B2, “Methods of preventing or treating diseases, conditions, or disorders associated with chemotherapy” (The Chinese University of Hong Kong, priority 2022, dated 2025).

For data set [1], the system named is C57BL/6J male mice. The data set is classed as in vivo, mouse. As for the experimental part:
(§1) Recombinant human GDF15/MIC-1 protein (CHO-derived) was purchased from PeproTech Inc. (Cranbury, USA) and described in Example 1. […] For in vitro studies, solid lyophilized powder of these two drugs were solubilized at the recommended concentrations in sterile water, and separate aliquots were made and frozen until thawing prior to addition to cell cultures. For in vivo studies, all agents were dissolved in […] normal saline according to the required concentrations (doxorubicin, 5 mg/kg; GDF15, 0.5 mg/kg; dexrazoxane, […]), and the final volume of each intraperitoneal injection was 100 μl. The recommended dose ratio of dexrazoxane to doxorubicin was 10 to 1. In the following examples, 5 mg/kg of doxorubicin was used which correspond to 50 mg/kg of dexrazoxane. The FDA recommends that dexrazoxane be injected within 0.5 hour prior to doxorubicin infusion in individuals. This was followed in the same manner when applying to the test animals.
To induce cardiotoxicity in the mouse, four weekly intraperitoneal injections of doxorubicin at 5 mg/kg were administered. After one dose of doxorubicin at 5-6 mg/kg in a mouse, the level of exposure has been estimated to be similar to that of a human individual being given a standard dose of doxorubicin at approximately 60 mg/m^2. Previous studies have shown that mice injected with doxorubicin once a week at 5 mg/kg for four weeks developed cardiotoxicity, as evidenced by decreased ventricular ejection fraction, cardiomyocyte apoptosis, histopathological changes consistent with doxorubicin-induced myocardial damage, and increased mortality rate, compared with the control group.
The hearts of mice were collected after sacrifice and fixed in 4% paraformaldehyde overnight, followed by paraffin embedding. Afterwards the hearts were cut into 4 μm thick slices. Sections were deparaffinized and rehydrated using sequential immersion in 100% alcohol, 95% alcohol and 70% alcohol for 15 minutes each. […]

Data set [2] concerns C57BL/6J male mice. The data set is described as follows: Noninvasive blood pressure in mouse doxorubicin cardiotoxicity model. The data set is classed as in vivo. Particulars: for Day 28 DBP / Day 28 SBP: after doxorubicin 5 mg/kg intraperitoneal once weekly for four weeks (Dox + groups); for Day 28 DBP / Day 28 SBP / Day 0 DBP / Day 0 SBP: n = 4 per group; for Day 0 DBP / Day 0 SBP: before doxorubicin administration. An excerpt:
Recombinant human GDF15/MIC-1 protein (CHO-derived) was purchased from PeproTech Inc. (Cranbury, USA) and described in Example 1. […] PubChem identifier number 71384) were purchased from Abcam (Cambridge, UK). For in vitro studies, solid lyophilized powder of these two drugs were solubilized at the recommended concentrations in sterile water, and separate aliquots were made and frozen until thawing prior to addition to cell cultures. […] The recommended dose ratio of dexrazoxane to doxorubicin was 10 to 1. In the following examples, 5 mg/kg of doxorubicin was used which correspond to 50 mg/kg of dexrazoxane. The FDA recommends that dexrazoxane be injected within 0.5 hour prior to doxorubicin infusion in individuals. This was followed in the same manner when applying to the test animals. Ten- to twelve-week old C57BL/6J male mice were purchased from the Laboratory Animal Services Centre of CUHK. They were maintained in specific pathogen-free facility of the CUHK Laboratory Animal Services Centre Research Unit at Prince of Wales Hospital with free access to food and water and maintained in a light/night cycle of 12 hours/12 hours. All mice were fed a standard diet. Blood pressure of animals was measured using the noninvasive CODA® High Throughput System (Torrington, USA) in accordance with the manufacturer's instructions. Measurement platform was prewarmed and maintained at 33-35° C. O-cuffs and VPR-cuffs were used as instructed. Blood pressure of each mouse was measured for at least three cycles. Mice were released and returned to their cages immediately after measurement. Blood pressure was measured twice, once at the beginning of the experiment and once before sacrifice. To induce cardiotoxicity in the mouse, four weekly intraperitoneal injections of doxorubicin at 5 mg/kg were administered. After one dose of doxorubicin at 5-6 mg/kg in a mouse, the level of exposure has been estimated to be similar to that of a human individual being given a standard dose of doxorubicin at approximately 60 mg/m^2.

The test system of data set [3] is hESC-CMs. Kind of data set: Mitochondrial morphology analysis (MitoTracker Deep Red). The data set is classed as cell-based, human. As for the experimental part:
(§2) To evaluate mitochondrial morphology as a surrogate of cell and mitochondrial viability, hESC-CMs were incubated in B27+/RPMI−1640 media containing 50 nmol/L MitoTracker Deep Red (MTDR) (Thermo Fisher Scientific, USA), and 1 μg/ml Hoechst 33342 (Thermo Fisher Scientific, USA) for 20 minutes. Microscopic images were acquired using DMi8s Research Inverted Thunder Imager Live Cell System (Leica, Germany). For MTDR and Hoechst 33342 imaging, excitation wavelengths of […] and 480 nm, respectively, were used. Mitochondrial morphology was classified into three categories: i) elongated, ii) punctate, and iii) perinuclear. Nuclear morphology was classified as either condensed or normal.

Data set [4] relates to hESC-CMs. The data set is described as follows: Nuclear condensation by Hoechst 33342 stain (cardiomyocyte apoptosis). In kind it is cell-based, human. The procedure:
as §2

In data set [5] the test system is C57BL/6J male mice. The data set is classed as in vivo, mouse. The procedure: as §1
To induce cardiotoxicity in the mouse, four weekly intraperitoneal injections of doxorubicin at 5 mg/kg were administered. After one dose of doxorubicin at 5-6 mg/kg in a mouse, the level of exposure has been estimated to be similar to that of a human individual being given a standard dose of doxorubicin at approximately 60 mg/m^2. […]
The image processing and analysis software, ImageJ version 1.53K, was used for evaluation of histopathology from mouse experiments. For Masson's trichrome staining, the acquired images were converted from color to grayscale using ImageJ, the blue-stained collagen were segmented (separated) using thresholding, and the threshold areas in a representative microscopic field were quantified. […] Cells containing brown staining (TUNEL-positive cells) were counted in a representative microscopic field for each mouse in each group.
This is another data set of the same source.

The mark [6] stands for this setting: 300 ng/ml GDF15 pretreatment, hESC-CMs exposed to doxorubicin.
[7] abbreviates: hESC-CMs, pretreatment in the presence of Dox.

Where two headings read alike, the source gives them in different places.

As for `COc1cccc2c1C(=O)c1c(O)c3c(c(O)c1C2=O)C[C@@](O)(C(=O)CO)C[C@@H]3OC1C[C@H](N)[C@H](O)[C@H](C)O1.Cl` (stereo partly drawn) [Dox, (8S,10S)-10-[(3-Amino-2,3,6-trideoxy-L-lyxohexopyranosyl)oxy]-7,8,9,10-tetrahydro-6,8,11-trihydroxy-8-(hydroxyacetyl)-1-methoxynaphthacene-5,12-dione hydrochloride, reference compound], the “myocardial histopathology (hematoxylin and eosin)” value in data set [1] (mouse, in vivo) is “myocardial structural disarray, and microfibrillar disruption and disorganization”. Moreover, in data set [2], the “Day 28 DBP” value amounted to 119 ± 7 mmHg, the “Day 28 SBP” value is 146 ± 7 mmHg, the “Day 0 DBP” value amounted to 87 ± 15 mmHg and the “Day 0 SBP” value was 116 ± 13 mmHg. Also, the “punctation or perinuclear changes of mitochondria” value in data set [3] (doxorubicin-treated cells, no pretreatment, untreated control 5.4±4.2%) was found to be 47.3±12.6%. For the same molecule, the “elongated mitochondria (proportion of hESC-CMs)” value in data set [3] (doxorubicin-treated cells, no pretreatment, untreated control 94.6±5.8%) was determined as 24.5±17.1%. Besides, the “hESC-CMs displaying nuclear condensation” value in data set [4] (doxorubicin-treated, no pretreatment) is given as greater than 40%. Further, the “cardiac fibrosis (Masson's trichrome)” value in data set [5] (mouse, in vivo) is recorded as “diffuse myocardial interstitial fibrosis as well as perivascular fibrosis”.
For the molecule “GDF15: commercially available recombinant human GDF-15 protein (PeproTech 120-28C), CHO cell-derived, SEQ ID NO: 1”, the “myocardial histopathology (hematoxylin and eosin)” value in data set [1] (mice, pretreatment before doxorubicin) is on record as “similarly improved”. Further, the “systolic and diastolic blood pressure” value in data set [2] (GDF15 5 mg/kg intraperitoneal before doxorubicin, compared with doxorubicin only) is given as “significantly lowered”. In addition, in data set [2], the “Day 28 DBP” value worked out at 88 ± 5 mmHg, the “Day 28 SBP” value amounted to 121 ± 5 mmHg, the “Day 0 DBP” value is 83 ± 17 mmHg and the “Day 0 SBP” value stood at 117 ± 12 mmHg. Also, in data set [3] (setting [6]), the elongated mitochondria came out at 62.5±11.0% and the perinuclear mitochondria worked out at 13.2±14.7%. The “mitochondrial integrity compared with dexrazoxane” value in data set [3] (setting [7]) is “performed similarly to dexrazoxane”. Also, the “extent of nuclear condensation compared with dexrazoxane” value in data set [4] (setting [7]) is given as “performed similarly to dexrazoxane”. Further, the “hESC-CMs displaying nuclear condensation” value in data set [4] (pretreated with 300 ng/ml GDF15, then doxorubicin) was determined as 12.8±1.7%. Also, the “cardiac fibrosis (Masson's trichrome)” value in data set [5] (mice, pretreatment before doxorubicin, versus doxorubicin only) was “visually and quantitatively reduced”.
